Measured values as given in patent publication EP0238178B1, “Novel derivatives of erythromycylamine” (ELI LILLY AND COMPANY, priority 1986, dated 1987).
≈ marks a conversion by molar mass, not a printed value. Read-outs that look alike come from different tables or passages of the source.

Columns and labels:
[1] = test system: Streptococcus pyogenes C203; assay: MIC, standard agar-dilution assay; assay type: cell-based; conditions: read-out: MIC
[2] = test system: Streptococcus sp. group D 2041; assay: MIC, standard agar-dilution assay; assay type: cell-based; conditions: read-out: MIC
[3] = test system: Escherichia coli EC14; assay: MIC, standard agar-dilution assay; assay type: cell-based; conditions: read-out: MIC
[4] = test system: Haemophilus influenzae C.L.; assay: MIC, standard agar-dilution assay; assay type: cell-based; conditions: Ampicillin-sensitive strain, read-out: MIC
[5] = test system: Staphylococcus epidermidis 222; assay: MIC, standard agar-dilution assay; assay type: cell-based; conditions: read-out: MIC
[6] = test system: Streptococcus sp. group D X66; assay: MIC, standard agar-dilution assay; assay type: cell-based; conditions: Streptococcus sp. group D X66; read-out: MIC
[7] = test system: Staphylococcus aureus; assay: Experimental bacterial infection in mice, ED50; assay type: in vivo; conditions: Staphylococcus aureus, two doses, dose protecting 50% of animals
Method: (§1) The new derivatives of this invention have also shown in vivo antimicrobial activity against experimental bacterial infections. When two doses of test compound were administered to mice in experimental infections, the activity observed was measured as an EDso value [effective dose in mg/kg to protect 50% of the test animals: see Warren Wick, et al., J. Bacteriol. 81, 233-235 (1961)].

[8] = test system: Streptococcus pyogenes; assay: Experimental bacterial infection in mice, ED50; assay type: in vivo; conditions: Streptococcus pyogenes, two doses, dose protecting 50% of animals
Method: as §1

[9] = test system: Streptococcus pneumoniae; assay: Experimental bacterial infection in mice, ED50; assay type: in vivo; conditions: Streptococcus pneumoniae, two doses, dose protecting 50% of animals
Method: as §1

[10] = test system: Staphylococcus aureus S13E; assay: MIC, standard agar-dilution assay; assay type: cell-based
[11] = test system: Staphylococcus aureus X1.1; assay: MIC, standard agar-dilution assay; assay type: cell-based; conditions: read-out: MIC
[12] = test system: Haemophilus influenzae 76; assay: MIC, standard agar-dilution assay; assay type: cell-based; conditions: Haemophilus influenzae 76, Ampicillin-resistant strain; read-out: MIC
[13] = test system: Streptococcus pneumoniae Park I; assay: MIC, standard agar-dilution assay; assay type: cell-based; conditions: read-out: MIC
[14] = test system: Klebsiella pneumoniae X68; assay: MIC, standard agar-dilution assay; assay type: cell-based; conditions: read-out: MIC
[15] = sc, subcutaneous, read-out: Subcutaneous ED50

Row | SMILES | MIC [1] [µg/mL] | MIC [2] [µg/mL] | MIC [3] [µg/mL] | MIC [4] [µg/mL] | MIC [5] [µg/mL] | MIC [6] [µg/mL] | ED50 ([7]; po, read-out: Oral ED50) [mg/kg] | ED50 ([8]; po, read-out: Oral ED50) [mg/kg] | ED50 ([9]; po, read-out: Oral ED50) [mg/kg] | MIC [10] [µg/mL] | MIC [11] [µg/mL] | MIC [12] [µg/mL] | MIC [13] [µg/mL] | MIC [14] [µg/mL] | ED50 [7, 15] [mg/kg] | ED50 [8, 15] [mg/kg] | ED50 [9, 15] [mg/kg]
1 | CCCCCCN[C@@H]1[C@H](C)[C@@H](O)[C@](C)(O)[C@@H](CC)OC(=O)[C@H](C)[C@@H](O[C@H]2C[C@@](C)(OC)[C@@H](O)[C@H](C)O2)[C@H](C)[C@@H](O[C@@H]2O[C@H](C)C[C@H](N(C)C)[C@H]2O)[C@](C)(O)C[C@H]1C [Compound 6, 9-Deoxo-9-(n-hexylamino)erythromycin] | 0.125 (≈ 0.153 µM) | 4 (≈ 4.88 µM) | 64 (≈ 78.1 µM) | 4 (≈ 4.88 µM) | 0.25 (≈ 0.305 µM) | 0.125 (≈ 0.153 µM) | 38.6 | 17.7 | 14.3 | 1 (≈ 1.22 µM) | 1 (≈ 1.22 µM) | 4 (≈ 4.88 µM) | < 0.008 |  |  |  | 
2 | CCCCCCCN[C@@H]1[C@H](C)[C@@H](O)[C@](C)(O)[C@@H](CC)OC(=O)[C@H](C)[C@@H](O[C@H]2C[C@@](C)(OC)[C@@H](O)[C@H](C)O2)[C@H](C)[C@@H](O[C@@H]2O[C@H](C)C[C@H](N(C)C)[C@H]2O)[C@](C)(O)C[C@H]1C [Compound 7, 9-Deoxo-9-(-n-heptylamino)erythromycin] | 0.015 (≈ 0.018 µM) | 2 (≈ 2.4 µM) | 64 (≈ 76.8 µM) | 1 (≈ 1.2 µM) | 0.25 (≈ 0.3 µM) | 0.06 (≈ 0.072 µM) | > 50 | 30.6 | 33.2 |  | 0.25 (≈ 0.3 µM) | 2 (≈ 2.4 µM) | 0.015 (≈ 0.018 µM) |  |  |  | 
3 | CC[C@H]1OC(=O)[C@H](C)[C@@H](O[C@H]2C[C@@](C)(OC)[C@@H](O)[C@H](C)O2)[C@H](C)[C@@H](O[C@@H]2O[C@H](C)C[C@H](N(C)C)[C@H]2O)[C@](C)(O)C[C@@H](C)[C@H](NCC2CC=CCC2)[C@H](C)[C@@H](O)[C@]1(C)O (some centres unmarked) [Compound 15, 9-Deoxo-9-[(1-cyclohex-4-enylmethyl)amino]erythromycin] | 0.06 (≈ 0.0724 µM) | 8 (≈ 9.65 µM) | 64 (≈ 77.2 µM) | 4 (≈ 4.82 µM) | 0.25 (≈ 0.302 µM) | 0.25 (≈ 0.302 µM) | 20 | 14.9 | 8.7 | 1 (≈ 1.21 µM) | 1 (≈ 1.21 µM) | 2 (≈ 2.41 µM) | < 0.008 |  |  |  | 
4 | CC[C@H]1OC(=O)[C@H](C)[C@@H](O[C@H]2C[C@@](C)(OC)[C@@H](O)[C@H](C)O2)[C@H](C)[C@@H](O[C@@H]2O[C@H](C)C[C@H](N(C)C)[C@H]2O)[C@](C)(O)C[C@@H](C)[C@H](NCCCc2ccccc2)[C@H](C)[C@@H](O)[C@]1(C)O [Compound 17, (9S)-9-Deoxo-9-[(3-phenypropyl)amino]erythromycin] | 0.015 (≈ 0.0176 µM) | 2 (≈ 2.34 µM) | 128 (≈ 150 µM) | 2 (≈ 2.34 µM) | 0.5 (≈ 0.586 µM) | 0.06 (≈ 0.0703 µM) | 36.9 | 14.1 | 17.2 | 0.5 (≈ 0.586 µM) | 1 (≈ 1.17 µM) | 2 (≈ 2.34 µM) | 0.015 (≈ 0.0176 µM) |  |  |  | 
5 | CC[C@H]1OC(=O)[C@H](C)[C@@H](O[C@H]2C[C@@](C)(OC)[C@@H](O)[C@H](C)O2)[C@H](C)[C@@H](O[C@@H]2O[C@H](C)C[C@H](N(C)C)[C@H]2O)[C@](C)(O)C[C@@H](C)[C@H](NCCCCCO)[C@H](C)[C@@H](O)[C@]1(C)O [Compound 21, 9-Deoxo-9-[(5-hydroxypentyl)amino]erythromycin] | < 0.008 | 4 (≈ 4.87 µM) | 32 (≈ 39 µM) | 2 (≈ 2.44 µM) | 0.5 (≈ 0.609 µM) | 0.25 (≈ 0.304 µM) | > 50 | 42.6 | > 50 | 0.25 (≈ 0.304 µM) | 0.5 (≈ 0.609 µM) |  | < 0.008 | 128 (≈ 156 µM) |  |  | 
6 | CC[C@H]1OC(=O)[C@H](C)[C@@H](O[C@H]2C[C@@](C)(OC)[C@@H](O)[C@H](C)O2)[C@H](C)[C@@H](O[C@@H]2O[C@H](C)C[C@H](N(C)C)[C@H]2O)[C@](C)(O)C[C@@H](C)[C@H](NCCCOC)[C@H](C)[C@@H](O)[C@]1(C)O [Compound 23, (9S)-9-Deoxo-9-[(3-methoxypropyl)amino]erythromycin] | 0.125 (≈ 0.155 µM) | 8 (≈ 9.91 µM) | 64 (≈ 79.3 µM) | 4 (≈ 4.96 µM) | 0.5 (≈ 0.62 µM) | 0.25 (≈ 0.31 µM) | 16.4 | 13.5 | 15.9 | 2 (≈ 2.48 µM) | 2 (≈ 2.48 µM) | 4 (≈ 4.96 µM) | 0.03 (≈ 0.0372 µM) |  | 3.73 | 2.1 | 8.3
7 | CC[C@H]1OC(=O)[C@H](C)[C@@H](O[C@H]2C[C@@](C)(OC)[C@@H](O)[C@H](C)O2)[C@H](C)[C@@H](O[C@@H]2O[C@H](C)C[C@H](N(C)C)[C@H]2O)[C@](C)(O)C[C@@H](C)[C@H](NCCCSC)[C@H](C)[C@@H](O)[C@]1(C)O [Compound 26, 9-Deoxo-9-[[3-(methylthio)propyl]amino]erythromycin] | 0.015 (≈ 0.0182 µM) | 2 (≈ 2.43 µM) | 128 (≈ 156 µM) | 4 (≈ 4.86 µM) | 0.5 (≈ 0.607 µM) | 0.25 (≈ 0.304 µM) |  | 7.9 | 9.2 | 0.25 (≈ 0.304 µM) | 0.5 (≈ 0.607 µM) | 4 (≈ 4.86 µM) | 0.015 (≈ 0.0182 µM) |  |  |  | 
